Laboratory results as given in patent US11065239B2, “Use of EZH2 inhibitor combined with BTK inhibitor in preparing drug for treating tumor” (Jiangsu Hengrui Medicine Co., Ltd., priority 2017, dated 2021).

Key:
[1] = system: human follicular lymphoma DOHH-2 cells subcutaneous transplantation tumor; experiment: Subcutaneous transplantation tumor in nude mice inoculated with DOHH-2 cells; format: in vivo, BALB/cA-nude nude mice; conditions: DOHH-2 xenograft, 50 mg/kg each, PO, BID, D 0-20; for Mean tumor volume D 0: baseline at first administration
Source text: Test animals: BALB/cA-nude nude mice, 5-6 weeks old, female, purchased from Shanghai Lingchang Biotechnology Co., Ltd., with laboratory animals use license No.: SCXK (Shanghai) 2013-0018 and animal certificate No.: 2013001818958, feeding condition: SPF grade.
The test compounds were all formulated with 0.2% Tween 80+0.5% CMC solutions, and diluted to the corresponding concentration.
(1) The nude mice were subcutaneously inoculated with lymphoma DOHH-2 cells. When the tumors grown to 100-200 mm^3, the animals were grouped randomly (D0).
(§1) (2) Observation and recording: the tumor volume was measured 2 to 3 times per week, the mice were weighed, and the data were recorded.
(§2) The endpoint is mainly dependent on whether the tumor growth is delayed or whether the mouse is cured. The tumor volume (in mm^3) was measured twice a week with caliper in two dimensions.
(§3) The tumor volume (V) is calculated as: V=0.5×a×b^2, wherein a and b represent length and width, respectively; T/C (%)=(T−T0)/(C−C0)×100, wherein T and C represent the tumor volume at the end of the experiment; T0 and C0 represent the tumor volume at the beginning of the experiment. The T/C value (percentage) is indicative of anti-tumor efficacy.
(§4) (4) Data analysis: the statistics were summarized, including mean and standard error of mean (SEM), statistical analysis of differences in tumor volume between groups, and analysis of data obtained by drug interaction that was carried out at the optimal treatment time point after the last administration (Day 21 after grouping). One-way variance analysis was performed to compare tumor volume and tumor weight between groups. When a […] F-statistic was obtained (p<0.001, treatment variance vs. error variance), the comparison between groups was performed using Games-Howell test. All data were analyzed using SPSS17.0, and P<0.05 was considered as statistically significant.

[2] = system: human B cell lymphoma SU-DHL-4 cells subcutaneous transplantation tumor; experiment: Subcutaneous transplantation tumor in mice inoculated with SU-DHL-4 cells; format: in vivo, SCID.BG mice; conditions: SU-DHL-4 xenograft, PO; for Mean tumor volume D 0: baseline at first administration; for Mean tumor volume D 0 / % T/C D 14 / % tumor inhibition rate D 14 / Mean tumor volume D 14 / Complete regression (number of mice) / Partial regression (number of mice): 50 mg/kg each, BID, D 0-13; for Complete regression (number of mice) / Partial regression (number of mice): 8 mice per group; for tumor completely regressed, fraction of mice / tumor partially regressed, fraction of mice: 50 mg/kg; for tumor partially regressed, fraction of mice: text says QD×14
Source text: Test animals: SCID.BG mice, 5-6 weeks old, female, purchased from Shanghai Lingchang Biotechnology Co., Ltd., with laboratory animals use license No.: SCXK (Shanghai) 2013-0018 and animal certificate No.: 2013001820833, feeding condition: SPF grade.
The test compounds were all formulated with 0.2% Tween 80+0.5% CMC solution, and diluted to the corresponding concentration.
(1) The mice were subcutaneously inoculated with SU-DHL-4 cells (B cell lymphoma SU-DHL-4 cells were purchased from ATCC). When the tumors grown to 100-150 mm^3, the animals were grouped according to the tumor volume (D0).
as §1, §2
as §3, with “efficacy. Tumor growth inhibition rate (TGI) (%)=100−T/C (%);” for “efficacy.”
When the tumor regressed, the tumor growth inhibition rate (TGI) (%)=100−(T−T0)/T0×100
If the tumor volume is smaller than the initial volume, i.e. T<T0 or C<C0, it is defined as partial regression (PR); if the tumor completely disappears, it is defined as complete regression (CR).
as §4, with “14” for “21”, “single-tailed Mann-Whitney statistical analysis” for “the comparison between groups”, “to compare tumor volumes of the two groups,” for “using Games-Howell test. All data were analyzed using SPSS17.0,”

[3] = system: human B cell lymphoma DOHH-2 cells; experiment: Proliferation of DOHH-2 cells in vitro (MTT); format: cell-based; conditions: single compound, 72 hours
Experimental: Cell line: human B cell lymphoma DOHH-2 cells (purchased from DSMZ), cultured in vitro in RPMI 1640 medium containing 10% fetal bovine serum (FBS).
(§5) Each of the test compounds was all formulated with DMSO into a 10 mM stock solution, which was formulated into the desired concentration with serum-free medium when used.
(§6) A certain number of cells in logarithmic growth phase was inoculated in a 96-well culture plate. After 24 hours, the cells were added with the test compounds in different concentrations (1-100000 nM), and incubated for 72 hours. Each well was added with the MTT working solution. After 4 hours, the cells were lysed with the triple solution, and the OD value was measured at a wavelength of 570 nm by a microplate reader. […]
The half effective concentration IC50 was calculated using the non-linear regression method according to the inhibition, rate of each concentration.
(§7) In the combined administration, the concentration ratio of compound A to compound B was 1:10. The combination index (CI) was calculated with Calcu-Syn program using the median effect method to evaluate the relationship between the two compounds during the combined administration (CI<1 refers to synergistic effect, CI=1 refers to additive effect, CI>1 refers to antagonistic effect).

[4] = system: human B cell lymphoma SU-DHL-6 cells; experiment: Proliferation of SU-DHL-6 cells in vitro (MTT); format: cell-based; conditions: single compound, 72 hours
Experimental: (§8) Cell line: human B cell lymphoma SU-DHL-4 and SU-DHL-6 cells (purchased from ATCC), cultured in vitro in RPMI 1640 medium containing 10% fetal bovine serum (FBS).
as §5
as §6, with “(1-40000” for “(1-100000”, “solution (10% SDS, 5% isobutanol, 0.012 mol/L HCl) at 37° C. overnight,” for “solution,”
(§9) The half effective concentration IC50 was calculated using the non-linear regression method according to the inhibition rate of each concentration.
as §7, with “1:2 (for SU-DHL-4) and 1:4 (for SU-DHL-6).” for “1:10.”

[5] = system: human B cell lymphoma SU-DHL-4 cells; experiment: Proliferation of SU-DHL-4 cells in vitro (MTT); format: cell-based; conditions: single compound, 72 hours
Experimental: as §8, §5
as §6, with “(1-40000” for “(1-100000”, “solution (10% SDS, 5% isobutanol, 0.012 mol/L HCl) at 37° C. overnight,” for “solution,”
as §9
as §7, with “1:2 (for SU-DHL-4) and 1:4 (for SU-DHL-6).” for “1:10.”

Row | IC50 [3] [µM] | IC50 [4] [nM] | IC50 [5] [nM] | SMILES | Mean tumor volume D 0 [1] [mm^3] | % T/C D 21 [1] [%] | % tumor inhibition rate D 21 [1] [%] | Mean tumor volume D 21 [1] [mm^3] | Mean tumor volume D 0 [2] [mm^3] | % T/C D 14 [2] [%] | % tumor inhibition rate D 14 [2] [%] | Mean tumor volume D 14 [2] [mm^3] | Complete regression (number of mice) [2] | Partial regression (number of mice) [2] | tumor completely regressed, fraction of mice [2] | tumor partially regressed, fraction of mice [2]
1 | 0.325 | 711 | 1060 | CC#CC(=O)N1CC[C@@H](n2cc(-c3ccc(Oc4c(F)cccc4F)cc3)c3c(N)n[nH]c(=O)c32)C1 [Compound A] | 111.1 | 51 | 49 | 742.0 | 122.4 | 24 | 76 | 276.9 | 1 | 1 | 1/8 | 1/8
2 | 5.92 | 4660 | 2170 | CCc1c(N(CC)C2CCOCC2)cc2oc(CN3CCCCC3)cc2c1C(=O)NCc1c(C)cc(C)[nH]c1=O [Compound B, N-((4,6-dimethyl-2-oxo-1,2-dihydropyridin-3-yl)methyl)-5-ethyl-6-(ethyl(tetrahydro-2H-pyran-4-yl)amino)-2-(piperidin-1-ylmethyl)benzofuran-4-carboxamide] | 107.7 | 65 | 35 | 914.1 | 126.6 | 40 | 60 | 384.7 | 1 | 2 | 1/8 | 2/8
